Starred links: 1 amine or outer side, 2 acyl side, 3 side chain; linkers in the order of their positions; H or OH if unused. Non-standard residues stand in square brackets, D forms with d. Residues, ends and D or L forms follow the SMILES beside them. *: point of attachment. X1 = CC(C)CC(C(=O)[*:2])[C@H](O)[C@H](CC(C)C)N[*:1]; Isobutyryl = CC(C)C(=O)*
Assays:
dog plasma renin = molecular target: T1, dog plasma renin (Canis lupus familiaris, UniProt Q6DYE7); assay: Dog plasma renin assay; format: biochemical; settings: for IC50: read-out: Renin Inhibition Dog Plasma I50
T1 construct: Further assays measured human plasma renin and dog plasma renin; from tissue; host or cells: dog plasma
T1 sequence (Q6DYE7 66-403): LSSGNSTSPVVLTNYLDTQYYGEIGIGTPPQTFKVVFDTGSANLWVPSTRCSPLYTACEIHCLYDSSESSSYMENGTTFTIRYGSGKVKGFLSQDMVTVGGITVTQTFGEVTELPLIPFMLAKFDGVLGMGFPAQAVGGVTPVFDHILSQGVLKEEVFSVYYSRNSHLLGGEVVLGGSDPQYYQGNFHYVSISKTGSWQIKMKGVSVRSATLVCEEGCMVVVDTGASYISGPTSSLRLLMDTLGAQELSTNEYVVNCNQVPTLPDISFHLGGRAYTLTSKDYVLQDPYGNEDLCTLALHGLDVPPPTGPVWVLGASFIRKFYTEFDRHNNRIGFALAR
Procedure: (§1) Assays were carried out in order to determine the inhibitory potency of the peptides of the present invention. One assay measured the inhibition of hog kidney renin, and was in accordance with the procedure described in Rich et al., J. Med. Chem. 23: 27, 1980, except that a pH of 7.3 was used. Another assay measured the inhibition of human kidney renin purified as described in Bangham, D. R., Robertson, I., Robinson, J. I. S., Robinson, C. J., and Tree, M., Clinical Science and Molecular Medicine, 48 (Supp. 2): 136s-159s (1975), and further purified by affinity chromatography on pepstatin-aminohexyl-Sepharase as described in Poe, M., Wu., J. K., Florance, J. R., Radkey, J. A., Bennett, C. D., and Hoogsteen, K., J. Biol. Chem. 258: 2209-2216 (1983). The assay was also in accordance with Poe et al. cited above. Further assays measured human plasma renin and dog plasma renin in accordance with procedures described in Boger et al., Nature, 303: 81-84 (1983).

human plasma renin = molecular target: T2, human plasma renin (Homo sapiens, UniProt P00797); assay: Human plasma renin assay; format: biochemical; settings: read-out: Renin Inhibition Human Plasma I50
T2 construct: Further assays measured human plasma renin and dog plasma renin; from tissue; host or cells: human plasma
T2 sequence (P00797 67-406): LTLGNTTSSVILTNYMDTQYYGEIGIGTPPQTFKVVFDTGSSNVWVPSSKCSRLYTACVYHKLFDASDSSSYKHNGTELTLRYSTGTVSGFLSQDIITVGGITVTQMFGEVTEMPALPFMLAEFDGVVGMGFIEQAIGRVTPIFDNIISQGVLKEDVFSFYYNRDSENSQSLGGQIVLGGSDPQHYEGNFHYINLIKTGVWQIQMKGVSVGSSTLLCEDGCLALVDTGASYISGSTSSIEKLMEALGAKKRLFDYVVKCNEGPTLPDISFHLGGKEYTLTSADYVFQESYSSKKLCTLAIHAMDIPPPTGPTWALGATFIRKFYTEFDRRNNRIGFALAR
Procedure: as §1

human kidney renin = molecular target: T3, human kidney renin (Homo sapiens, UniProt P00797); assay: Inhibition of purified human kidney renin; format: biochemical; settings: dissociation constant of the inhibited enzyme inhibitor complex
T3 construct: human kidney renin purified as described in Bangham; from tissue; host or cells: human kidney
T3 sequence (P00797 67-406): T2 sequence (P00797 67-406)
Procedure: as §1
Results expressed as KI values refer to the dissociation constant of the inhibited enzyme inhibitor complex. This KI value was obatined as described above. Pepstatin was used as an active control.

hog kidney renin = assay: Inhibition of hog kidney renin; format: biochemical; settings: pH 7.3; read-out: Renin Inhibition Hog Kidney I50
Procedure: as §1

nephrectomized rats = settings: after the injection of hog renin into nephrectomized rats; Gross et al.; cited from earlier work
acid proteases = settings: cited from earlier work

Row | IC50 (dog plasma renin) [nM] | IC50 (human plasma renin) [nM] | Ki (human kidney renin) [nM] | Molecule | also measured
1 | 3.5 | 8.2 | 9.3 | CC(C)C[C@H](NC(=O)[C@H](CC(C)C)[C@H](O)[C@H](Cc1ccccc1)NC(=O)[C@H](Cc1c[nH]cn1)NC(=O)[C@H](Cc1ccccc1)NC(=O)OC(C)(C)C)C(=O)NCc1ccccc1 [BOCPheHis(2- -i-Bu)AHPPALeu, tert-Butyloxycarbonyl-L-phenylalanyl-L-histidyl-4(S)-amino-3(S)-hydroxy-2(R)-iso-butyl-5-phenylpentanoyl-L-leucyl-benzylamide] | –
2 | – | – | 10 | CC(C)C[C@H](NC(=O)[C@H](CC(C)C)[C@H](O)[C@H](CC(C)C)NC(=O)[C@H](Cc1c[nH]cn1)NC(=O)[C@H](Cc1ccccc1)NC(=O)OC(C)(C)C)C(=O)NCc1ccccc1 [BOCPheHis(2- -i-Bu)StaLeu] | Renin Inhibition Dog Plasma % I (dog plasma renin; I 10^-6): 0%
3 | 6.2 | 65 | 4.4 | CC(C)CC[C@@H](C(=O)N[C@@H](CC(C)C)C(=O)NCc1ccccc1)[C@H](O)[C@H](Cc1ccccc1)NC(=O)[C@H](Cc1c[nH]cn1)NC(=O)[C@H](Cc1ccccc1)NC(=O)OC(C)(C)C [BOCPheHis(2- -i-Pent)AHPPALeu] | –

The remaining lines, values behind:

Row | Molecule | IC50 (dog plasma renin) [nM] | IC50 (human plasma renin) [nM] | Ki (human kidney renin) [nM] | also measured
4 | CC(C)CC(C(=O)N[C@@H](CC(C)C)C(=O)N[C@@H](Cc1ccccc1)C(N)=O)[C@H](O)[C@H](CC(C)C)NC(=O)[C@H](Cc1ccccc1)NC(=O)[C@H](Cc1ccccc1)NC(=O)[C@@H]1CCCN1C(=O)[C@H](Cc1c[nH]cn1)NC(=O)C(C)C (some centres unmarked) [IBUHisProPhePhe(2- -i-Bu)StaLeuPheNH2] (Isobutyryl-HPFF[X1]LF-NH2) | – | – | – | IC50 (hog kidney renin): 22 nM
5 | Pepstatin | – | – | – | blood pressure in vivo (nephrectomized rats): reduce blood pressure; inhibition of other acid proteases (selectivity) (acid proteases): inhibition of a variety of other acid proteases in addition to renin

Reference: patent US4663310A, “Renin inhibitors containing 2-substituted statine” (Merck & Co., Inc., priority 1984, dated 1987)
